Measurements: article PMC11489250, “Optimized methods for measuring competitive binding of chemical substances to thyroid hormone distributor proteins transthyretin and thyroxine binding globulin” (Archives of Toxicology, 2024)
Where two headings read alike, the source gives them in different places.

Legend:
TBG [1] = test system: TBG; design: method as in Marchesini et al. [2006]; conditions: highest concentration tested 10 µM; ref Marchesini et al. [2006]; cited from earlier work
Recombinant TTR = test system: Recombinant TTR; design: method as in Marchesini et al. [2006]; conditions: highest concentration tested 10 µM; ref Marchesini et al. [2006]; cited from earlier work
TBG [2] = conditions: calculated by Ki = 1/binding constant; ref Cao et al. [2011]; read-out: TBG literature Ki; cited from earlier work
Human TTR = biological target: T1, Human TTR (Homo sapiens, UniProt P02766); test: Optimized competitive TTR-binding assay with FITC-T4 (fluorescence intensity readout)
T1 construct: Transthyretin (prealbumin, TTR) >95% from human plasma; purchased Sigma Aldrich (Zwijndrecht, The Netherlands); host or cells: human plasma
Description: All TTR-binding experiments were performed in black 96-well polystyrene nonbinding plates. Experimental wells and background wells were prepared in triplicate per plate. […] Fluorescence intensity (FI) was measured at λex = 485 ± 20 nm and λem = 528 ± 20 nm (CLARIOstar Plus microplate reader, BMG LABTECH).
To test the effect of the change in temperature and incubation time, a saturation experiment (N = 3, n = 3) was performed in Tris–HCl buffer (0.1 M Tris (Thermo Scientific, Rockford, USA), 0.1 M NaCl (Merck KGaA, Darmstadt, Germany), 1 mM EDTA (VWR International, B.V. Amsterdam, The Netherlands); pH 8.0). […] Two 96-well plates were prepared at the same time. After shaking for 5 min on a plate shaker, one prepared plate was incubated on ice (at 4 °C) and another plate was incubated at room temperature (22 °C). For both plates the fluorescence was measured at different time points: 5 min, 15 min, 60 min and 120 min.
First, 48 µL Tris–HCl buffer (pH 8.0) was pipetted to the wells, followed by 2 µL of the compound (in DMSO). […] Final solvent (DMSO) concentrations in all conditions amounted to 1%. All plates were shaken for 5 min on a plate shaker, followed by an incubation for 15 min at room temperature. The standard operation procedure (SOP) is provided in Supplementary Information file (Section 3).
Calculations of the ICX, Kd and Ki values of TTR-binding assays are described in the Supplementary Information file (Section 3).
3.7.5 The competitive TTR binding screening assay
3.7.8 Processing data to determine IC50 and calculate Ki value

TTR = conditions: calculated by Ki = 1/binding constant; ref Cao et al. [2011]; read-out: TTR literature Ki; cited from earlier work
[3] = biological target: T2, thyroxine-binding globulin (TBG) (Homo sapiens, UniProt P05543); test: Competitive TBG-binding assay with FITC-T4 (fluorescence polarization readout)
T2 construct: purchased Bio-rad Laboratories, Inc. (Veenendaal, The Netherlands)
T2 sequence (P05543 21-415): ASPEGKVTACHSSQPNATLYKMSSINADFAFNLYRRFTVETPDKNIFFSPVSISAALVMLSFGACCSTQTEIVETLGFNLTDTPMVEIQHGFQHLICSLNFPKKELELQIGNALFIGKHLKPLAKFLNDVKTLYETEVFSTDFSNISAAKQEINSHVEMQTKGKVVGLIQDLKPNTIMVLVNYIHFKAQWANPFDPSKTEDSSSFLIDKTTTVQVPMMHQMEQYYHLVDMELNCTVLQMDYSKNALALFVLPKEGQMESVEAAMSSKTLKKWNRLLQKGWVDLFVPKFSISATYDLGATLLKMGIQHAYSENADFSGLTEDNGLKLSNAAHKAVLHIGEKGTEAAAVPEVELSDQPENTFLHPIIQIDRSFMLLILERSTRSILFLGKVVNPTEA
Description: Prepared plates were first shaken for 5 min and then incubated for 15 min at room temperature before being analysed by the microplate reader at FP mode (CLARIOstar Plus, BMG LABTECH).
Accordingly, dilution series of all compounds were prepared in DMSO. First, 24 µL Tris–HCl buffer was pipetted to the wells, followed by 1 µL of the compound stock solution. […] Solvent (DMSO) concentrations in all conditions were 1%. The plates were shaken for 5 min on a plate shaker, followed by an incubation for 15 min at room temperature.
The adjusted polarization was set to a reference value of 35 mP. The adjustment gain values ranged from 1900 to 2200. The plate layout of TBG-binding assay is provided in Supplementary Information file (Section 4).
For the competitive TBG-binding experiments, concentration–response curves were fitted:2 r=rmin+rmax-rmin/1+IC50/X^HillSlope with rmin and rmax being the minimum and maximum anisotropy values, respectively. X is the concentration of added competitor. Equations that were used for the calculation of the ICX and Ki values in the TTR-binding assays (Supplementary Information, Section 3) were also used to determine the ICX and Ki values in TBG-binding assays without any changes, respectively. The single Kd, IC20, IC50 and Ki were determined based on replicates (n) in each experiment, and then the average and confidence intervals were determined based on the Kd, IC20, IC50 and Ki values from sperate experiments (N).
Alternatively, another approach to determine ICX, Kd and Ki values based on a theoretical model of ligand–protein binding biochemistry was taken as described in detail in the Supplementary Information file (Section 5). For this approach, R was used to fit the model to the data. The results obtained from the two approaches were compared in Section 3.4.
S5.2 Ki and IC50 estimation

[4] = T4EQi = highest human blood concentration x T4-REPi

IC20 (Human TTR; 110 nM FITC-T4, 30 nM TTR, RT, 15 min, average [95% CI], read-out: TTR IC20): 14.7 µM
IC50 (Human TTR; 110 nM FITC-T4, 30 nM TTR, RT, 15 min, average [95% CI], read-out: TTR IC50): 63.1 µM
Ki (Human TTR; 110 nM FITC-T4, 30 nM TTR, RT, 15 min, derived from IC20, average [95% CI], read-out: TTR Ki): 32.1 µM
Relative potency compared to T4 (T4-REP), TTR-binding assay (Human TTR; T4-REPi = IC20(T4)/IC20(i)): 0.002
T4EQ concentration (TTR binding) (Human TTR; [4]): 0.16 nM
Contribution to T4EQ concentration (TTR binding) (Human TTR; mixture of highest human blood concentrations of five model compounds): 0.8%
Ki ([3]; 5 nM FITC-T4, 10 nM TBG, RT, 15 min, derived from IC20, descriptive model (Graphpad), average [95% CI], read-out: TBG Ki): 16.8 µM
IC50 ([3]; 5 nM FITC-T4, 10 nM TBG, RT, 15 min, descriptive model (Graphpad), average [95% CI]): 172 µM
IC20 ([3]; 5 nM FITC-T4, 10 nM TBG, RT, 15 min, descriptive model (Graphpad), average [95% CI], read-out: TBG IC20): 32.6 µM
IC20 ([3]; 5 nM FITC-T4, 10 nM TBG, RT, theoretical model in R, average [95% CI], read-out: TBG IC20, theoretical model): 35.7 µM
Ki ([3]; 5 nM FITC-T4, 10 nM TBG, RT, theoretical model in R, average [95% CI], read-out: TBG Ki values, theoretical model): 18.4 µM
Relative potency compared to T4 (T4-REP), TBG-binding assay ([3]; T4-REPi = IC20(T4)/IC20(i)): 0.0003
T4EQ concentration (TBG binding) [3, 4]: 0.023 nM
Contribution to T4EQ concentration (TBG binding) ([3]; mixture of highest human blood concentrations of TBBPA, triclosan and BPA): 1.1%
Structure (SMILES): CC(C)(c1ccc(O)cc1)c1ccc(O)cc1 [BPA, bisphenol-A]
competitive binding to TBG (in words) (TBG [1]): no competitive binding
competitive binding to TTR (in words) (Recombinant TTR): no competitive binding
Ki (TBG [2]): 1.7 µM
Ki (TTR): 3.23 µM
